These results are taken from patent US20060276464A1, “Diarylsulfone sulfonamides and use thereof” (Wyeth, priority 2005, published 2006).

Structures are written as SMILES. “And” between values parts separate entries of the source, which are not always exact repeats. Equal entries are not always repeated. Where two headings read alike, the source gives them in different places.

The target in experiment [1] is T1, SFRP-1 (Homo sapiens, UniProt Q8N474).
T1 sequence (Q8N474 32-314): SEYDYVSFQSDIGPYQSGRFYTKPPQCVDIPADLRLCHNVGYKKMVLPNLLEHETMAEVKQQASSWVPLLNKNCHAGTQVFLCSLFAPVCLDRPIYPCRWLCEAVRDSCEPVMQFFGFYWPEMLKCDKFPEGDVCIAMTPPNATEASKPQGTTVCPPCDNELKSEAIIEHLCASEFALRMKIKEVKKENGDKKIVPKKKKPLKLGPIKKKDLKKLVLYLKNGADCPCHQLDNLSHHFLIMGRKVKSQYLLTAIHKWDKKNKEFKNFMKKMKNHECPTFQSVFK
Put plainly: Cell-based assay for in vitro measurement of SFRP-1/SARP2 antagonist activity (U2OS cells co-transfected with 16x TCF-tk-Luciferase reporter, Wnt and hSFRP-1).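 Further: U2OS cells co-transfected with a TCF-tk luciferase reporter, a Wnt vector, hSFRP-1 or empty vector and CMV-βgal, luciferase luminescence read in cell lysates alongside βgal activity.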 The note with it: U2OS, single dose, luciferase reporter. For orientation: In a reporter assay the amount or activity of a reporter protein is the signal.

In experiment [2] the target is T1, SFRP-1. The experiment is described as follows: Fluorescence polarization binding assay (competitive displacement of a probe compound from SFRP-1).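 Further: test compound competes with a fluorescent probe held by SFRP-1, seen as a drop in probe anisotropy after incubation in darkness, with anisotropy as function of rising compound dose.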 The note with it: fluorescence anisotropy, 45 nM SFRP-1, 20 nM probe.
Setting [3] is: read-out: Fold Induction with SFRP-1, Conc 15 μM, fold induction over SFRP-1 control, cells with SFRP-1.
[4] abbreviates: read-out: Fold Induction without SFRP-1, Conc 15 μM, cells without SFRP-1 (specificity control).

In the case of `COc1ccccc1OC(=O)N1CCC(NS(=O)(=O)c2cc(S(=O)(=O)c3ccccc3)ccc2C)CC1` [Example 489, 2-methoxyphenyl 4-({[2-methyl-5-(phenylsulfonyl)phenyl]sulfonyl}amino)piperidine-1-carboxylate], the fold induction at 15 µM on SFRP-1 [1] (setting [3]) came out at 2.4; at SFRP-1 [1] (setting [4]), 1.1. Also, the 50% inhibitory concentration (IC50) at SFRP-1 [2] was found to be 1 µM.

Take `Cc1ccc(S(=O)(=O)c2ccccc2)cc1S(=O)(=O)NC1CCN(C(=O)NC(C)(C)C)CC1` [Example 490, N-(tert-butyl)-4-({[2-methyl-5-(phenylsulfonyl)phenyl]sulfonyl}amino)piperidine-1-carboxamide]: the fold induction at 15 µM on SFRP-1 [1] (setting [3]) is 1.7; on SFRP-1 [1] (setting [4]), 1. At SFRP-1 [2], this compound displayed an IC50 of 2.3 µM.

`Cc1ccc(S(=O)(=O)c2ccccc2)cc1S(=O)(=O)NC1CCN(C(=O)c2ccc3ccccc3c2)CC1` [Example 496, 2-methyl-N-[1-(2-naphthoyl)piperidin-4-yl]-5-(phenylsulfonyl)benzenesulfonamide]: the fold induction at 15 µM at SFRP-1 [1] (setting [3]) was 1.9; on SFRP-1 [1] (setting [4]), 1. The compound also showed an IC50 at SFRP-1 [2] of 1.4 µM.

Consider `Cc1ccc(S(=O)(=O)c2ccccc2)cc1S(=O)(=O)NC1CCN(C(=O)c2cccs2)CC1` [Example 497, 2-methyl-5-(phenylsulfonyl)-N-[1-(2-thienylcarbonyl)piperidin-4-yl]benzenesulfonamide], for which the fold induction at 15 µM on SFRP-1 [1] (setting [3]) turned out to be 2.4; on SFRP-1 [1] (setting [4]) it was 1. Also, on SFRP-1 [2], the concentration for half-maximal inhibition (IC50) was 1.3 µM and 1.7 µM.

For `Cc1ccc(S(=O)(=O)c2ccccc2)cc1S(=O)(=O)NC1CCN(C(=O)OCC(C)C)CC1` [Example 498, isobutyl 4-({[2-methyl-5-(phenylsulfonyl)phenyl]sulfonyl}amino)piperidine-1-carboxylate], the figures for the fold induction at 15 µM on SFRP-1 [1] (setting [3]) and on SFRP-1 [1] (setting [4]) were 1.8 and 1, respectively. This compound showed a 50% inhibitory concentration (IC50) at SFRP-1 [2] of 2.2 µM.

Turning to `Cc1ccc(S(=O)(=O)c2ccccc2)cc1S(=O)(=O)NC1CCN(C(=O)c2ccc(N(C)C)cc2)CC1` [Example 499, N-{1-[4-(dimethylamino)benzoyl]piperidin-4-yl}-2-methyl-5-(phenylsulfonyl)benzenesulfonamide], the fold induction at 15 µM on SFRP-1 [1] (setting [3]) turned out to be 2.4; at SFRP-1 [1] (setting [4]) it was 1. This compound also displayed a half-maximal inhibitory concentration (IC50) on SFRP-1 [2] of 0.9 µM.

For the compound `CCNC(=O)N1CCC(NS(=O)(=O)c2cc(S(=O)(=O)c3ccccc3)ccc2C)CC1` [Example 501, N-ethyl-4-({[2-methyl-5-(phenylsulfonyl)phenyl]sulfonyl}amino)piperidine-1-carboxamide], the figures for the fold induction at 15 µM on SFRP-1 [1] (setting [3]) and at SFRP-1 [1] (setting [4]) were 2.5 and 0.9, respectively. Further, the IC50 on SFRP-1 [2] stood at 4 µM.

With `Cc1ccc(S(=O)(=O)c2ccccc2)cc1S(=O)(=O)NC1CCN(C(=O)N2CCOCC2)CC1` [Example 502, 2-methyl-N-[1-(morpholin-4-ylcarbonyl)piperidin-4-yl]-5-(phenylsulfonyl)benzenesulfonamide], the fold induction at 15 µM at SFRP-1 [1] (setting [3]) stood at 2.9; on SFRP-1 [1] (setting [4]), 1. The compound also had an IC50 on SFRP-1 [2] of 3 µM.

For the compound `Cc1ccc(S(=O)(=O)c2ccccc2)cc1S(=O)(=O)NC1CCN(C(=O)N(C)C)CC1` [Example 503, N,N-dimethyl-4-({[2-methyl-5-(phenylsulfonyl)phenyl]sulfonyl}amino)piperidine-1-carboxamide], the results for the fold induction at 15 µM on SFRP-1 [1] (setting [3]) and on SFRP-1 [1] (setting [4]) were 2.7 and 0.9, respectively. On SFRP-1 [2], this compound displayed an IC50 of 2.4 µM.

As to `Cc1ccc(S(=O)(=O)c2ccccc2)cc1S(=O)(=O)NC1CCN(C(=O)CC(C)(C)C)CC1` [Example 504, N-[1-(3,3-dimethylbutanoyl)piperidin-4-yl]-2-methyl-5-(phenylsulfonyl)benzenesulfonamide], the fold induction at 15 µM at SFRP-1 [1] (setting [3]) was found to be 2.2; at SFRP-1 [1] (setting [4]), 1. At SFRP-1 [2], this compound registered an IC50 of 4 µM.

Turning to `CC(C)c1ccc(S(=O)(=O)c2cc(Cl)cc(Cl)c2)cc1S(=O)(=O)NCCc1ccccn1` [Example 505, 5-[(3,5-dichlorophenyl)sulfonyl]-2-isopropyl-N-(2-pyridin-2-ylethyl)benzenesulfonamide], the fold induction at 15 µM at SFRP-1 [1] (setting [3]) turned out to be 2.3; at SFRP-1 [1] (setting [4]), 1. For the same compound, the IC50 on SFRP-1 [2] was 0.7 µM.

Consider `CC(C)c1ccc(S(=O)(=O)c2cccc(OC(F)(F)F)c2)cc1S(=O)(=O)NCCc1ccccn1` [Example 506, 2-isopropyl-N-(2-pyridin-2-ylethyl)-5-{[3-(trifluoromethoxy)phenyl]sulfonyl}benzenesulfonamide], for which the fold induction at 15 µM stood at 2.7 on SFRP-1 [1] (setting [3]) and 1 at SFRP-1 [1] (setting [4]). On SFRP-1 [2], this compound yielded an IC50 of 2.4 µM.

Consider `CC(C)c1ccc(S(=O)(=O)c2ccc(N(C)C)cc2)cc1S(=O)(=O)NCCc1ccccn1` [Example 507, 5-{[4-(dimethylamino)phenyl]sulfonyl}-2-isopropyl-N-(2-pyridin-2-ylethyl)benzenesulfonamide], for which the fold induction at 15 µM was found to be 2.7 at SFRP-1 [1] (setting [3]) and 0.9 at SFRP-1 [1] (setting [4]). This compound also had an IC50 on SFRP-1 [2] of 0.5 µM.

As for `CC(C)c1ccc(S(=O)(=O)c2cccc(C(F)(F)F)c2)cc1S(=O)(=O)NCCc1ccccn1` [Example 508, 2-isopropyl-N-(2-pyridin-2-ylethyl)-5-{[3-(trifluoromethyl)phenyl]sulfonyl}benzenesulfonamide], the fold induction at 15 µM on SFRP-1 [1] (setting [3]) came out at 2.3; at SFRP-1 [1] (setting [4]), 0.9. This compound also showed a half-inhibitory concentration (IC50) at SFRP-1 [2] of 1.3 µM.

On to `COc1ccc(Cl)cc1S(=O)(=O)c1ccc(C(C)C)c(S(=O)(=O)NCCc2ccccn2)c1` [Example 509, 5-[(5-chloro-2-methoxyphenyl)sulfonyl]-2-isopropyl-N-(2-pyridin-2-ylethyl)benzenesulfonamide], for which the fold induction at 15 µM was 1.9 on SFRP-1 [1] (setting [3]) and 1 at SFRP-1 [1] (setting [4]). The compound further yielded an IC50 at SFRP-1 [2] of 1.2 µM.

With `CC(C)c1ccc(S(=O)(=O)c2cccc3cccnc23)cc1S(=O)(=O)NCCc1ccccn1` [Example 510, 2-isopropyl-N-(2-pyridin-2-ylethyl)-5-(quinolin-8-ylsulfonyl)benzenesulfonamide], the fold induction at 15 µM on SFRP-1 [1] (setting [3]) was 1.9; at SFRP-1 [1] (setting [4]) it was 1.1. The same compound gave an IC50 at SFRP-1 [2] of 0.9 µM.

As for `CC(C)c1ccc(S(=O)(=O)c2cc(Cl)sc2Cl)cc1S(=O)(=O)NCCc1ccccn1` [Example 511, 5-[(2,5-dichloro-3-thienyl)sulfonyl]-2-isopropyl-N-(2-pyridin-2-ylethyl)benzenesulfonamide], the fold induction at 15 µM at SFRP-1 [1] (setting [3]) worked out at 2.8; at SFRP-1 [1] (setting [4]) it was 0.9. The IC50 at SFRP-1 [2] is 1.8 µM and 2.3 µM.

With `Cc1nn(C)c(Cl)c1S(=O)(=O)c1ccc(C(C)C)c(S(=O)(=O)NCCc2ccccn2)c1` [Example 512, 5-[(5-chloro-1,3-dimethyl-1H-pyrazol-4-yl)sulfonyl]-2-isopropyl-N-(2-pyridin-2-ylethyl)benzenesulfonamide], the fold induction at 15 µM at SFRP-1 [1] (setting [3]) came to 3.1; on SFRP-1 [1] (setting [4]) it was 1.1. Also, the IC50 on SFRP-1 [2] is 1 µM.

Consider `CC(C)c1ccc(S(=O)(=O)c2cn(C)cn2)cc1S(=O)(=O)NCCc1ccccn1` [Example 513, 2-isopropyl-5-[(1-methyl-1H-imidazol-4-yl)sulfonyl]-N-(2-pyridin-2-ylethyl)benzenesulfonamide], for which the fold induction at 15 µM at SFRP-1 [1] (setting [3]) is 2.2; at SFRP-1 [1] (setting [4]), 1.2. Besides, the concentration for half-maximal inhibition (IC50) at SFRP-1 [2] came to 6 µM.

In the case of `Cc1c(Cl)cccc1S(=O)(=O)c1ccc(C(C)C)c(S(=O)(=O)NCCc2ccccn2)c1` [Example 514, 5-[(3-chloro-2-methylphenyl)sulfonyl]-2-isopropyl-N-(2-pyridin-2-ylethyl)benzenesulfonamide], the fold induction at 15 µM on SFRP-1 [1] (setting [3]) is 2.6; on SFRP-1 [1] (setting [4]), 1. For the same compound, the IC50 on SFRP-1 [2] was 0.7 µM.

Take `Cc1ccc(S(=O)(=O)c2ccccc2)cc1S(=O)(=O)NC1CCN(C(=O)c2cccnc2)CC1` [Example 516, 2-methyl-5-(phenylsulfonyl)-N-[1-(pyridin-3-ylcarbonyl)piperidin-4-yl]benzenesulfonamide]: the fold induction at 15 µM is 3 at SFRP-1 [1] (setting [3]) and 1 at SFRP-1 [1] (setting [4]). The IC50 at SFRP-1 [2] amounted to 2.6 µM.

With `CC(C)c1ccc(S(=O)(=O)c2ccc(F)cc2)cc1S(=O)(=O)NC1CCN(C(=O)OC(C)(C)C)CC1` [Example 517, tert-butyl 4-[({5-[(4-fluorophenyl)sulfonyl]-2-isopropylphenyl}sulfonyl)amino]piperidine-1-carboxylate], the fold induction at 15 µM on SFRP-1 [1] (setting [3]) worked out at 2.2; at SFRP-1 [1] (setting [4]), 1. At SFRP-1 [2], the half-maximal inhibitory concentration (IC50) was 1.6 µM.

On to `CC(C)c1ccc(S(=O)(=O)c2ccc(F)cc2)cc1S(=O)(=O)NC1CCN(S(=O)(=O)c2cccc3c(N(C)C)cccc23)CC1` [Example 518, N-(1-{[5-(dimethylamino)-1-naphthyl]sulfonyl}piperidin-4-yl)-5-[(4-fluorophenyl)sulfonyl]-2-isopropylbenzenesulfonamide], for which the results for the fold induction at 15 µM at SFRP-1 [1] (setting [3]) and at SFRP-1 [1] (setting [4]) were 3 and 1.2, respectively. On SFRP-1 [2], the half-maximal inhibitory concentration (IC50) amounted to 0.5 µM.

As to `COCC(=O)N1CCC(NS(=O)(=O)c2cc(S(=O)(=O)c3ccc(F)cc3)ccc2C(C)C)CC1` [Example 519, 5-[(4-fluorophenyl)sulfonyl]-2-isopropyl-N-[1-(methoxyacetyl)piperidin-4-yl]benzenesulfonamide], the fold induction at 15 µM on SFRP-1 [1] (setting [3]) is 3; at SFRP-1 [1] (setting [4]), 0.9. The compound also registered an IC50 at SFRP-1 [2] of 0.8 µM.

What is called IC50 is the concentration that inhibits the measured activity by half.
